Measured values as given in paper PMC10360169 (Frontiers in Immunology, 2023).
Like-named read-outs stand apart in the source and are kept apart here.

Assays:
Acar19 = assay type: binding, great reed warbler Acrocephalus arundinaceus; conditions: Table S5, half-life estimated from dissociation in scintillation proximity assay
Acar3 = assay type: binding, great reed warbler Acrocephalus arundinaceus
[1] = Table S1, top 94 PSCPL-scoring peptides, SPA, 10µM peptide, 125I β2m, folding over night at 18°C, dissociation measured up to 24 hours at 37°C
[2] = Table S5, half-life estimated from dissociation in scintillation proximity assay, Acar3

Row | Sequence | Stability T½ (h), peptide - Acar19 (Acar19) [h] | Stability T½ of Acar3 in complex with the peptide (Acar3; [1]) [min] | Stability T½ (h), peptide - Acar3 (Acar3; [2]) [h] | also measured
1 | AFHQLVQVI [9-mer peptide] | 0.3 | – | – | –
2 | AYAGLFTPL [9-mer peptide] | 0.4 | – | – | –
3 | DAAKNQVAM [9-mer peptide] | 0.2 | – | – | –
4 | DAAVVFPPV [9-mer peptide] | 10.0 | – | – | –
5 | DALLNEENL [9-mer peptide] | 2.0 | – | – | –
6 | DAMENPLSL [9-mer peptide] | 0.2 | – | – | –
7 | DASFNASAI [9-mer peptide] | 1.0 | – | – | –
8 | DAVRNAAAI [9-mer peptide] | 0.3 | – | – | –
9 | DFGYATMAK [9-mer peptide] | 0.3 | – | – | –
10 | DFIANTETI [9-mer peptide] | 4.7 | – | – | –
11 | DFISMYFPW [9-mer peptide] | 0.5 | – | – | –
12 | DFNEAIQAY [9-mer peptide] | 0.3 | – | – | –
13 | DHIPIINTL [9-mer peptide] | 0.3 | – | – | –
14 | DIKLIDIAL [9-mer peptide] | 3.7 | – | – | –
15 | DIQKLVGKL [9-mer peptide] | 0.4 | – | – | –
16 | DISPTNIPL [9-mer peptide] | 0.2 | – | – | –
17 | DMNLEQWSV [9-mer peptide] | 0.4 | – | – | –
18 | DMSTNAEYF [9-mer peptide] | 0.2 | – | – | –
19 | DMWEHAFYL [9-mer peptide] | 0.3 | – | – | –
20 | DPNPQEMVL [9-mer peptide] | 0.1 | – | – | –
21 | DPNPQEVVL [9-mer peptide] | 0.4 | – | – | –
22 | DPSGAYFAW [9-mer peptide] | 0.1 | – | – | –
23 | DQIRNMSVI [9-mer peptide] | 0.3 | – | – | –

Row | Sequence | Stability T½ (h), peptide - Acar19 (Acar19) [h] | Stability T½ of Acar3 in complex with the peptide (Acar3; [1]) [min] | Stability T½ (h), peptide - Acar3 (Acar3; [2]) [h] | also measured
24 | DSFPNSVTI [9-mer peptide] | 1.4 | – | – | –
25 | DSIMLTATF [9-mer peptide] | 1.5 | – | – | –
26 | DTAKAFAYL [9-mer peptide] | 0.5 | – | – | –
27 | DTDPLPVVF [9-mer peptide] | 0.2 | – | – | –
28 | DTETLTTMF [9-mer peptide] | 0.1 | – | – | –
29 | DTFGVIDTM [9-mer peptide] | 0.2 | – | – | –
30 | DTRAIDQFF [9-mer peptide] | 2.3 | – | – | –
31 | DVAKIEAPL [9-mer peptide] | 11.4 | – | – | –
32 | DVSPILEAY [9-mer peptide] | 0.1 | – | – | –
33 | DVVPMVTQM [9-mer peptide] | 0.6 | – | – | –
34 | DWMERIEDF [9-mer peptide] | 1.4 | – | – | –
35 | DWSGYSGSF [9-mer peptide] | 0.3 | – | – | –
36 | DYAMHGTVF [9-mer peptide] | 2.4 | – | – | –
37 | DYLQCVLQI [9-mer peptide] | 6.6 | – | – | –
38 | DYLQYVLQI [9-mer peptide] | 0.5 | – | – | –
39 | EAAGIAACL [9-mer peptide] | 0.6 | – | – | –
40 | EAAKNVECI [9-mer peptide] | 0.4 | – | – | –
41 | EDFEIFYNL [9-mer peptide] | 0.4 | – | – | –
42 | EFKQILTDF [9-mer peptide] | 3.6 | – | – | –
43 | ENALLVALF [9-mer peptide] | 0.1 | – | – | –
44 | ETFRLLRSF [9-mer peptide] | 0.1 | – | – | –
45 | EYAPFARLL [9-mer peptide] | 1.1 | – | – | –
46 | EYARQVQMI [9-mer peptide] | 0.4 | – | – | –

Row | Sequence | Stability T½ (h), peptide - Acar19 (Acar19) [h] | Stability T½ of Acar3 in complex with the peptide (Acar3; [1]) [min] | Stability T½ (h), peptide - Acar3 (Acar3; [2]) [h] | also measured
47 | FFSPVIASL [9-mer peptide] | 0.9 | – | – | –
48 | FSIMIYFTF [9-mer peptide] | 0.2 | – | – | –
49 | FSPRLCRPF [9-mer peptide] | 0.4 | – | – | –
50 | FWPQHFGLI [9-mer peptide] | 0.1 | – | – | –
51 | FYPPVLQPI [9-mer peptide] | 0.3 | – | – | –
52 | GFNKLRSTL [9-mer peptide] | 0.4 | – | – | –
53 | QAYAAPQLF [9-mer peptide] | – | 90 | 1.5 | –
54 | QMSWLPLCV [9-mer peptide] | – | 36 | 0.6 | –
55 | QQMFPGAPF [9-mer peptide] | – | 24 | 0.4 | –
56 | QWALLPYLF [9-mer peptide] | – | 594 | 9.9 | –
57 | RATQPAAEF [9-mer peptide] | – | 96 | 1.6 | –
58 | REMINHYQV [9-mer peptide] | – | 42 | 0.7 | –
59 | REWSGLNYL [9-mer peptide] | – | 114 | 1.9 | –
60 | RMAMIPRTL [9-mer peptide] | – | 30 | 0.5 | –
61 | RMMATKDSF [9-mer peptide] | – | 24 | 0.4 | –
62 | RMMGKTNPL [9-mer peptide] | – | – | 0.2 | –
63 | RQIRMTSTI [9-mer peptide] | – | – | 0.1 | –
64 | SLAIDAYPL [9-mer peptide] | – | – | – | Stability T½ (h), peptide - Acar3 (Acar3): 2.1 h; Stability T½ of Acar3 in complex with the peptide (Acar3): 126 min
65 | SMFERDFHF [9-mer peptide] | – | – | 0.2 | –
66 | SMHFYGWSL [9-mer peptide] | – | – | 0.2 | –
67 | SMMPEAMTI [9-mer peptide] | – | 54 | 0.9 | –
68 | SQMGLSCAL [9-mer peptide] | – | 18 | 0.3 | –
69 | STEFIPNLF [9-mer peptide] | – | 18 | 0.3 | –

Row | Sequence | Stability T½ (h), peptide - Acar19 (Acar19) [h] | Stability T½ of Acar3 in complex with the peptide (Acar3; [1]) [min] | Stability T½ (h), peptide - Acar3 (Acar3; [2]) [h] | also measured
70 | SVYFAAFAF [9-mer peptide] | – | 96 | 1.6 | –
71 | SYPPPPASF [9-mer peptide] | – | 12 | 0.2 | –
72 | VIMWYNYLF [9-mer peptide] | – | 18 | 0.3 | –
73 | VMMAKRPLI [9-mer peptide] | – | 30 | 0.5 | –
74 | VMPLLVWLF [9-mer peptide] | – | 114 | 1.9 | –
75 | VPMEKLKAL [9-mer peptide] | – | 84 | 1.4 | –
76 | VQTAAAVVF [9-mer peptide] | – | – | 0.2 | –
77 | VVKQLPASF [9-mer peptide] | – | – | 0.1 | –
78 | WLAKSFFEL [9-mer peptide] | – | – | 0.2 | –
79 | WMACNSAAF [9-mer peptide] | – | 54 | 0.9 | –
80 | WMMAMRYPI [9-mer peptide] | – | 186 | 3.1 | –
81 | WQLTSIWPI [9-mer peptide] | – | 42 | 0.7 | –
82 | YLLEMLWRL [9-mer peptide] | – | 24 | 0.4 | –
83 | YLMPYSVYI [9-mer peptide] | – | – | 0.1 | –
84 | YLQQNTHTL [9-mer peptide] | – | 30 | 0.5 | –
85 | YLYLRPYAL [9-mer peptide] | – | 144 | 2.4 | –
86 | YMHGSIHEV [9-mer peptide] | – | 54 | 0.9 | –
87 | YMKKRYEEF [9-mer peptide] | – | – | 0.2 | –
88 | YMWECPDFF [9-mer peptide] | – | 156 | 2.6 | –
89 | YMWLGARYL [9-mer peptide] | – | 24 | 0.4 | –
90 | YWMGGTTYF [9-mer peptide] | – | 48 | 0.8 | –
